According to ChEMBL document CHEMBL4354881, “Optimization of Potent ATAD2 and CECR2 Bromodomain Inhibitors with an Atypical Binding Mode” (J Med Chem, 2020):

Biological target: T1, Bromodomain and PHD finger-containing protein 3 (Homo sapiens, UniProt Q9ULD4)
T1 sequence (Q9ULD4 whole entry): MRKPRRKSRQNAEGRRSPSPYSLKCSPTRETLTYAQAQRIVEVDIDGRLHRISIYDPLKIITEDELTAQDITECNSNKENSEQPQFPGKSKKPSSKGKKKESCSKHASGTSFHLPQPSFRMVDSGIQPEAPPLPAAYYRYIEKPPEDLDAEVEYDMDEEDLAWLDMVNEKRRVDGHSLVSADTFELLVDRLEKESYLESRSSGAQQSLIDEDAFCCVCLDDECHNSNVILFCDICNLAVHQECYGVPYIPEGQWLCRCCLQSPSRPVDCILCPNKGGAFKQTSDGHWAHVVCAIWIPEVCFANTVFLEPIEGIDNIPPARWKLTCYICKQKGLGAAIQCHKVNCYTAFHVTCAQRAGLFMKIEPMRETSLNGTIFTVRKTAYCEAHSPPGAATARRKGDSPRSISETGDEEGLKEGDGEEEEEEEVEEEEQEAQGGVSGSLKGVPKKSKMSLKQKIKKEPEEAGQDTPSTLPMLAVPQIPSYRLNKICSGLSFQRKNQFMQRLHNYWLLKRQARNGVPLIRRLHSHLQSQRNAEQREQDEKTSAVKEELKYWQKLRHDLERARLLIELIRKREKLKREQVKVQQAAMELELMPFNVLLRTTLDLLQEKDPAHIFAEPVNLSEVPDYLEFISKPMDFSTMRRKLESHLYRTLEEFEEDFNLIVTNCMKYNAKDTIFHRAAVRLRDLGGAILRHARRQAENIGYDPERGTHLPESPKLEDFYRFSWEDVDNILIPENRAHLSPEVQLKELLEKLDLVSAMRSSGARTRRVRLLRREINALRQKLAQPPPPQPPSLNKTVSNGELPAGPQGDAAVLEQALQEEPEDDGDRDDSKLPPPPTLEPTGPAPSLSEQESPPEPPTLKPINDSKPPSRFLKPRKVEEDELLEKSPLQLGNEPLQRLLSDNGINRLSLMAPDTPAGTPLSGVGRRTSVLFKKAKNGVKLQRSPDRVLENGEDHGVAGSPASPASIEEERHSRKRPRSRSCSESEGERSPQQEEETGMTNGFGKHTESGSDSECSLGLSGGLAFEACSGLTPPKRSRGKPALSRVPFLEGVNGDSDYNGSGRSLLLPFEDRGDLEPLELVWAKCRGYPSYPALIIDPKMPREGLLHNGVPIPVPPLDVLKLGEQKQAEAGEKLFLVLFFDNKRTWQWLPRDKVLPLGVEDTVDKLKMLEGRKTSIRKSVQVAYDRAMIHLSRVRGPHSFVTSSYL
Assay: Binding affinity to human partial length BRPF3 (E588 to G701 residues) expressed in bacterial expression system by BROMOscan assay

- Kd: 126 nM
SMILES: C[C@H]1CCN(S(=O)(=O)c2cc(NC(=O)CN3C(=O)N[C@@](C)(C4CC4)C3=O)ccc2Br)C1
